Values after ≈ are worked out from the molar mass of the structure shown. Where two headings read alike, the source gives them in different places.
Experiments:
[1] = cited from earlier work
physchem = details: for solubility: organic solvent or mixture
From the text: In one or more embodiments, the foamable composition includes a potent solvent, in addition to or in place of one of the hydrophobic solvents, polar solvents or emollients of the composition. A potent solvent is a solvent other than mineral oil that solubilizes a specific active agent substantially better than a hydrocarbon solvent such as mineral oil or petrolatum.
In one or more embodiments, the composition includes at least one active agent in a therapeutically effective concentration; and at least one potent solvent in a sufficient amount to substantially solubilize the at least one active agent in the composition. […] In one or more embodiments, the concentration of the at least one potent solvent is more than about 40% of the at least one solvent of the composition; or even more than about 60%.

SMILES	Solubility in mineral oil (physchem) [%]	Solubility in glycofurol (physchem)	Solubility in dimethyl isosorbide (physchem)	further results
CCC(=O)O[C@]1(C(=O)CCl)[C@@H](C)C[C@H]2[C@@H]3CCC4=CC(=O)C=C[C@]4(C)[C@@]3(F)[C@@H](O)C[C@@]21C [clobestol proprionate]				degree of solubility in water or petrolatum or the composition ([1]; in words): practically insoluble
CC(=O)[C@H]1CC[C@H]2[C@@H]3CCC4=CC(=O)CC[C@]4(C)[C@H]3CC[C@]12C [Progesterone]	< 0.001			solubility (physchem; Solubility in PEG 400): 15300 µg/mL (≈ 48.7 mM)
CCCC(=O)O[C@]1(C(=O)CO)CC[C@H]2[C@@H]3CCC4=CC(=O)CC[C@]4(C)[C@H]3[C@@H](O)C[C@@]21C [Hydrocortisone butyrate]	< 0.01	more than 1%		
Cc1cnc(NC(=O)C2=C(O)c3ccccc3S(=O)(=O)N2C)s1 [Meloxicam]	< 0.001			solubility (physchem; Solubility in PEG 400): 3700 µg/mL (≈ 10.5 mM); solubility (physchem; Solubility in propylene glycol): 300 µg/mL (≈ 0.854 mM)
CCCCC(=O)O[C@]1(C(=O)CO)[C@@H](C)C[C@H]2[C@@H]3CCC4=CC(=O)C=C[C@]4(C)[C@@]3(F)[C@@H](O)C[C@@]21C [Betamethasone valerate]	< 0.01	more than 1%		solubility in water ([1]; in words): practically insoluble
CC(=O)N1CCN(c2ccc(OCC3COC(Cn4ccnc4)(c4ccc(Cl)cc4Cl)O3)cc2)CC1 (stereo not drawn) [Ketoconazole]	< 0.01	more than 1%	more than 1%	Solubility in propylene glycol (physchem): more than 1%
C=C1/C(=C\C=C2/CCC[C@]3(C)[C@@H]([C@H](C)/C=C/[C@@H](O)C4CC4)CC[C@@H]23)C[C@@H](O)C[C@@H]1O [calcipotriol]				solubility in water [1]: 0.6 µg/mL (≈ 0.00145 mM)
C/C(=C\C(=O)OCCCCCCCCC(=O)O)C[C@@H]1OC[C@H](C[C@@H]2O[C@H]2[C@@H](C)[C@H](C)O)[C@@H](O)[C@H]1O [Mupirocin]	< 0.01	more than 1%	more than 1%	Solubility in polyethylene glycol 400 (PEG 400) (physchem): more than 1%; Solubility in propylene glycol (physchem): more than 1%
C=CC[C@@H]1/C=C(\C)C[C@H](C)C[C@H](OC)[C@H]2O[C@@](O)(C(=O)C(=O)N3CCCC[C@H]3C(=O)O[C@H](/C(C)=C/[C@@H]3CC[C@@H](O)[C@H](OC)C3)[C@H](C)[C@@H](O)CC1=O)[C@H](C)C[C@@H]2OC [tacrolimus]				solubility in water ([1]; in words): insoluble
Cc1ncc([N+](=O)[O-])n1CCO [Metronidazole]	< 0.01		more than 1%	
